Read-outs that look alike come from different tables or passages of the source.
Key:
[1] = MTT cell viability assay, mouse hepatocytes (serum-free RPMI-1640); type: cell-based; conditions: BALB/c, isolated mouse hepatocytes
[2] = system: cholesterol biosynthesis in Hep G2 cells; assay: Cholesterol biosynthesis, incorporation of [2, ^3H]acetate into [^3H]cholesterol, Hep G2; type: cell-based, human; conditions: for inhibition at 10 µM / inhibition at 1 µM / inhibition at 5 µM / inhibition at 50 µM: Homo sapiens, read-out: percentage of inhibition of cholesterol biosynthesis
[3] = system: cholesterol biosynthesis in Hep 3B cells; assay: Cholesterol biosynthesis, incorporation of [2, ^3H]acetate into [^3H]cholesterol, Hep 3B; type: cell-based, human; conditions: for inhibition at 10 µM / inhibition at 1 µM / inhibition at 5 µM / inhibition at 50 µM: Homo sapiens, Hep3B, read-out: percentage of inhibition of cholesterol biosynthesis
Hep 3B cells = assay: Sub-G1 population and DNA fragmentation (apoptosis), Hep 3B; type: cell-based, human; conditions: compared with Hep G2 cells treated in the same condition (FIG. 12)

CC[C@H](C)C(=O)O[C@H]1C[C@@H](C)C=C2C=C[C@H](C)[C@H](CC[C@@H]3C[C@@H](O)CC(=O)O3)[C@H]21 [Lovastatin, lovastatin]
viability at 72 h, 1 μM [1]: 91.9 ± 2.7%
viability at 72 h, 2 μM [1]: 85 ± 4.5%
viability at 72 h, 5 μM [1]: 84.7 ± 13.3%
viability at 72 h, 10 μM [1]: 80.4 ± 9.9%
viability at 72 h, 20 μM [1]: 74.9 ± 5.1%
viability at 72 h, 50 μM [1]: 39.1 ± 10.6%
inhibition at 10 µM ([2]; HepG2, 2 h): 91.8%
inhibition at 10 µM ([2]; HepG2, 6 h): 94%
inhibition at 10 µM ([2]; HepG2, 12 h): 93.3%
inhibition at 1 µM ([2]; HepG2, 24 h): 50.7%
inhibition at 5 µM ([2]; HepG2, 24 h): 73.2%
inhibition at 10 µM ([2]; HepG2, 24 h): 87.2%
inhibition at 50 µM ([2]; HepG2, 24 h): 95.8%
inhibition at 1 µM ([2]; HepG2, 48 h): -15.3%
inhibition at 5 µM ([2]; HepG2, 48 h): 48.5%
inhibition at 10 µM ([2]; HepG2, 48 h): 69.4%
inhibition at 50 µM ([2]; HepG2, 48 h): 85.1%
[^3H]cholesterol ([2]; lovastatin 1 μM, 24 hr): 30.14 10^2 dpm/10^5 cells/hr
[^3H]cholesterol ([2]; lovastatin 1 μM, 48 hr): 70.43 10^2 dpm/10^5 cells/hr
[^3H]cholesterol ([2]; lovastatin 5 μM, 24 hr): 16.39 10^2 dpm/10^5 cells/hr
[^3H]cholesterol ([2]; lovastatin 5 μM, 48 hr): 31.46 10^2 dpm/10^5 cells/hr
[^3H]cholesterol ([2]; lovastatin 10 μM, 2 hr): 5.00 10^2 dpm/10^5 cells/hr
[^3H]cholesterol ([2]; lovastatin 10 μM, 6 hr): 3.67 10^2 dpm/10^5 cells/hr
[^3H]cholesterol ([2]; lovastatin 10 μM, 12 hr): 4.07 10^2 dpm/10^5 cells/hr
[^3H]cholesterol ([2]; lovastatin 10 μM, 24 hr): 7.83 10^2 dpm/10^5 cells/hr
[^3H]cholesterol ([2]; lovastatin 10 μM, 48 hr): 18.71 10^2 dpm/10^5 cells/hr
[^3H]cholesterol ([2]; lovastatin 50 μM, 24 hr): 2.54 10^2 dpm/10^5 cells/hr
[^3H]cholesterol ([2]; lovastatin 50 μM, 48 hr): 9.13 10^2 dpm/10^5 cells/hr
inhibition at 10 µM ([3]; 2 h): 94.1%
inhibition at 10 µM ([3]; 6 h): 92.4%
inhibition at 10 µM ([3]; 12 h): 89.5%
inhibition at 1 µM ([3]; 24 h): 50%
inhibition at 5 µM ([3]; 24 h): 85.4%
inhibition at 10 µM ([3]; 24 h): 91.4%
inhibition at 50 µM ([3]; 24 h): 95.1%
inhibition at 1 µM ([3]; 48 h): 68.2%
inhibition at 5 µM ([3]; 48 h): 86.2%
inhibition at 10 µM ([3]; 48 h): 94%
inhibition at 50 µM ([3]; 48 h): 95.5%
suppression of cholesterol synthesis ([3]; after prolonged treatment with lovastatin): > 90%
[^3H]cholesterol ([3]; lovastatin 1 μM, 24 hr): 29.84 10^2 dpm/10^5 cells/hr
[^3H]cholesterol ([3]; lovastatin 1 μM, 48 hr): 18.95 10^2 dpm/10^5 cells/hr
[^3H]cholesterol ([3]; lovastatin 5 μM, 24 hr): 8.69 10^2 dpm/10^5 cells/hr
[^3H]cholesterol ([3]; lovastatin 5 μM, 48 hr): 8.25 10^2 dpm/10^5 cells/hr
[^3H]cholesterol ([3]; lovastatin 10 μM, 2 hr): 3.54 10^2 dpm/10^5 cells/hr
[^3H]cholesterol ([3]; lovastatin 10 μM, 6 hr): 4.52 10^2 dpm/10^5 cells/hr
[^3H]cholesterol ([3]; lovastatin 10 μM, 12 hr): 6.25 10^2 dpm/10^5 cells/hr
[^3H]cholesterol ([3]; lovastatin 10 μM, 24 hr): 5.13 10^2 dpm/10^5 cells/hr
[^3H]cholesterol ([3]; lovastatin 10 μM, 48 hr): 3.59 10^2 dpm/10^5 cells/hr
[^3H]cholesterol ([3]; lovastatin 50 μM, 24 hr): 2.92 10^2 dpm/10^5 cells/hr
[^3H]cholesterol ([3]; lovastatin 50 μM, 48 hr): 2.71 10^2 dpm/10^5 cells/hr
Sub-G1 population and DNA fragmentation (markers of cell apoptosis) (Hep 3B cells): observed in a higher percentage and lower dose of lovastatin treatment than those in Hep G2 cells
